This is an account of results in ChEMBL document CHEMBL5506017, “Brain-Permeable Immunoproteasome-Targeting Macrocyclic Peptide Epoxyketones for Alzheimer's Disease” (J Med Chem, 2024).

Data set [1] in a line: Tmax in BALB/c mouse at 150 mg/kg, po measured after 15 to 360 mins by LC-MS/MS analysis. The following applies: in vivo, time 15-360 min. The data set is classed as ADME, organism-based.
Data set [2] can be described thus: Mutagenicity in Salmonella typhimurium TA100 at 0.01 to 100 uM incubated for 90 mins in absence of liver S9 fraction by AMES test. The format is toxicity. The settings on record: salmonella enterica subsp. enterica serovar typhimurium, s9, 1.5 h, dose 0.01-100 µM.
The nature of data set [3]: Tmax in BALB/c mouse plasma at 40 mg/kg, iv measured upto 1440 mins by LC-MS/MS analysis. The format is ADME, organism-based.
Data set [4] in a line: Half life in BALB/c mouse at 40 mg/kg, iv measured upto 1440 mins by LC-MS/MS analysis. The following applies: in vivo, 24 h. The data set is classed as ADME, organism-based.
Data set [5] in a line: Toxicity in BALB/c mouse at 100 mg/kg, iv measured for 72 hrs. The format is organism-based. The following applies: in vivo.
The nature of data set [6]: In vivo inhibition of LMP2 activity in BALB/c mouse brain at 40 mg/kg, iv measured after 2 hrs relative to control. The data set is classed as functional.
Data set [7] in a line: C0 in BALB/c mouse at 40 mg/kg, iv measured upto 1440 mins by LC-MS/MS analysis. The data set is classed as ADME, organism-based. The following applies: in vivo, 24 h.
Data set [8] can be described thus: Drug uptake in BALB/c mouse liver at 40 mg/kg, iv measured after 2 hrs. The data set is classed as ADME, organism-based. The following applies: in vivo.
Data set [9] can be described thus: Cytotoxicity against human ARPE-19 cells assessed as reduction in cell viability incubated for 96 hrs by CellTiter 96 Aqueous One Solution Cell Proliferation Assay. The data set is classed as toxicity, cell-based.
The nature of data set [10]: Toxicity in BALB/c mouse assessed as effect on hair loss at 40 mg/kg, iv. The following applies: in vivo. The format is organism-based.
The nature of data set [11]: Metabolic stability in human liver microsomes assessed as half life at 2 uM measured upto 60 mins by LC-MS/MS analysis. The data set is classed as ADME, Microsome. The settings on record: 1 h. A general note: Liver microsomes are vesicles of endoplasmic reticulum, rich in cytochrome P450 enzymes.
The nature of data set [12]: Cmax in BALB/c mouse at 40 mg/kg, iv measured upto 1440 mins by LC-MS/MS analysis. The data set is classed as ADME, organism-based. The settings on record: in vivo, 24 h.
Data set [13] in a line: Mutagenicity in Salmonella typhimurium TA98 at 0.01 to 100 uM incubated for 90 mins in presence of liver S9 fraction by AMES test. The following applies: salmonella enterica subsp. enterica serovar typhimurium, s9, 1.5 h, dose 0.01-100 µM. The format is toxicity, subcellular.
Data set [14] in a line: Toxicity in BALB/c mouse assessed as diarrhea at 100 mg/kg, po. The settings on record: in vivo. The format is organism-based.
Data set [15] is described as follows: AUC infinity in BALB/c mouse at 40 mg/kg, iv measured upto 1440 mins by LC-MS/MS analysis. The following applies: in vivo, 24 h. The data set is classed as ADME, organism-based.
Data set [16] can be described thus: Protein binding in human plasma assessed as unbound fraction. The data set is classed as ADME, cell-free.
A short description of data set [17]: Toxicity in BALB/c mouse assessed as effect on weight loss at 40 mg/kg, iv. The data set is classed as organism-based. The following applies: in vivo.
Data set [18] can be described thus: AUC (0 to last) in BALB/c mouse at 150 mg/kg, po measured after 15 to 360 mins by LC-MS/MS analysis. The format is ADME, organism-based. The settings on record: in vivo, time 15-360 min.

Each structure is given as a SMILES string. Bounds are passed on as bounds.

The Tmax is the time from dosing to the highest level. As usually defined, the inhibition in vivo is the drop in the measured response relative to a control, in per cent. Low values mean little suppression, high ones strong suppression. The IC50 is the concentration that inhibits the measured activity by half. Broadly, the Cmax is the maximum level reached in the sampled fluid or tissue. As usually defined, the AUC is the area under the concentration-time curve, a measure of exposure. A high value points to more exposure.

With `CC(C)C[C@H](NC(=O)[C@@H]1COCCCCCC(=O)N2C[C@H](F)C[C@H]2C(=O)N1)C(=O)[C@@]1(C)CO1`, the Tmax is 20 min in data set [1] and 15 min in [3]. For the same compound, the Activity entry in data set [2], in [5], in data set [10], in [13], in data set [14] and in [17] was “Non-Toxic” in each case. In addition, the t1/2 in data set [4] amounted to 25.2 min; in [11], 38.4 min. Also, the inhibition in vivo at 40 mg/kg in [6] amounted to 56%. In data set [7], this compound had a C0 of 31987 ng/mL. For the same compound, in [8], the Drug uptake entry is reported as “Active”. Besides, the IC50 at 96 h in data set [9] was more than 100 µM. Moreover, the Cmax in data set [12] was 25900 ng/mL. The compound further came in with an AUC in data set [15] of 9689 ng·h/mL. In addition, the Fu in [16] amounted to 0.45%. The AUClast in data set [18] was determined as 3553 ng·h/mL.
